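Briefly, cells in 96-well plates were exposed to five compound concentrations for 48 h, and endpoints were estimated by linear interpolation. TGI: concentration producing complete growth inhibition.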 Where a SMILES comes first, the peptide text is derived from it. [ ]: non-standard residue; d: D form. The star is where a group is joined. NMeF = CN[CH](Cc1ccccc1)C(=O)O; NMeV = CN[CH](C(=O)O)C(C)C; Boc = CC(C)(C)OC(=O)*; OBn = c1ccc(CO*)cc1
Legend:
Assay in all cases: NCI-60 cell line screen, 48 h
M14 melanoma = tested on: M14 melanoma
SW-620 colon = tested on: SW-620 colon
SN12C renal = tested on: SN12C renal
MDA-MB-435 = tested on: MDA-MB-435
BT-549 breast = tested on: BT-549 breast
786-0 renal = tested on: 786-0 renal
NCI-H23 lung = tested on: NCI-H23 lung
IGROV1 ovarian = tested on: IGROV1 ovarian
DU-145 prostate = tested on: DU-145 prostate
HCC-2998 colon = tested on: HCC-2998 colon
RXF 393 renal = tested on: RXF 393 renal

Structure (SMILES) | TGI (M14 melanoma) | TGI (SW-620 colon) | TGI (SN12C renal) | TGI (MDA-MB-435) | TGI (BT-549 breast) | TGI (786-0 renal) | TGI (NCI-H23 lung) | TGI (IGROV1 ovarian) | TGI (DU-145 prostate) | TGI (HCC-2998 colon) | TGI (RXF 393 renal)
COc1ccc(N2C(=O)C3c4[nH]c5ccccc5c4C4CCC(C(C)C)CC4C3C2=O)cc1 (stereo not drawn) | > 100 µM | > 100 µM | > 100 µM | > 100 µM | > 100 µM | > 100 µM | > 100 µM | > 100 µM | > 100 µM | > 100 µM | –
CC1=CC(=O)c2cccc(NC3=NCCO3)c21 | > 100 µM | > 100 µM | > 100 µM | 86.2 µM | – | > 100 µM | > 100 µM | > 100 µM | > 100 µM | > 100 µM | > 100 µM
COC(=O)C1(NC(=O)C(N)CC(=O)O)C(C)C1C (stereo not drawn) | > 100 µM | > 100 µM | > 100 µM | > 100 µM | – | > 100 µM | > 100 µM | > 100 µM | > 100 µM | – | > 100 µM
COC(=O)C[C@H](COCc1ccccc1)NC(=O)C[C@H](COCc1ccccc1)NC(=O)C[C@H](COCc1ccccc1)NC(=O)OC(C)(C)C | > 100 µM | > 100 µM | > 100 µM | > 100 µM | > 100 µM | 72.9 µM | > 100 µM | > 100 µM | > 100 µM | – | 72 µM
CC(=O)c1ccc2c(c1)oc(=O)n2CCN(C)C | > 100 µM | > 100 µM | – | > 100 µM | > 100 µM | > 100 µM | > 100 µM | > 100 µM | – | – | > 100 µM
Brc1cccc(C2(CCCC3(c4cccc(Br)n4)OCCO3)OCCO2)n1 | > 100 µM | > 100 µM | > 100 µM | > 100 µM | > 100 µM | > 100 µM | > 100 µM | > 100 µM | – | > 100 µM | > 100 µM
CCC(=N\NC(N)=S)/C(C)=N/O | > 100 µM | > 100 µM | > 100 µM | > 100 µM | – | > 100 µM | > 100 µM | > 100 µM | > 100 µM | > 100 µM | > 100 µM
Oc1[nH]c2ccccc2c1N=NC(=S)N1CCCCCC1 | 2.52 µM | 9.23 µM | 10.6 µM | 3.71 µM | – | 2.63 µM | 8.51 µM | 2.35 µM | 10.5 µM | 7.1 µM | 2.43 µM
CC(NC(=O)C(C)C(=O)NCc1ccc(C(F)(F)F)cc1)C(N)=O (stereo not drawn) | > 100 µM | > 100 µM | > 100 µM | > 100 µM | > 100 µM | > 100 µM | > 100 µM | > 100 µM | > 100 µM | – | > 100 µM
CC(C)C(NC(=O)OC(C)(C)C)C(=O)N(C)C(Cc1ccccc1)C(=O)N(C)C(C(=O)N(C)C(C(=O)OCc1ccccc1)C(C)C)C(C)C (stereo not drawn) (Boc-V[NMeF][NMeV][NMeV]-OBn; configuration not given here) | > 100 µM | > 100 µM | > 100 µM | – | – | > 100 µM | > 100 µM | > 100 µM | – | > 100 µM | –
Cc1cc(S(=O)(=O)O)ccc1N=Nc1ccc(N=Nc2c(O)ccc3ccccc23)c(C)c1 | > 100 µM | > 100 µM | > 100 µM | > 100 µM | > 100 µM | 61.3 µM | > 100 µM | > 100 µM | > 100 µM | – | > 100 µM
CC1NOC(NS(=O)(=O)c2ccc(N=Nc3c(O)c(C(=O)O)cc4ccccc34)cc2)C1C (stereo not drawn) | > 100 µM | > 100 µM | – | > 100 µM | > 100 µM | > 100 µM | – | > 100 µM | – | > 100 µM | > 100 µM
CCN(CC)C(=S)SNCCc1ccc(S(N)(=O)=O)cc1 | 23.1 µM | 36.7 µM | 27.2 µM | 29.6 µM | 30 µM | 27.8 µM | 38.7 µM | – | 33.8 µM | 50.6 µM | 22.1 µM
CCN(CC)C(=O)c1c(N2CCOCC2)cc(N(CC)CC)oc1=O | > 100 µM | > 100 µM | > 100 µM | – | – | > 100 µM | > 100 µM | > 100 µM | – | > 100 µM | > 100 µM
Cc1ccc(NC(=O)c2cccc([N+](=O)[O-])c2O)c(C)c1 | > 100 µM | > 100 µM | > 100 µM | – | – | – | > 100 µM | > 100 µM | – | > 100 µM | –
CCCCCCC(CCl)c1sc(-c2csc(CCNC(=O)OC(C)(C)C)n2)nc1C(=O)OC (stereo not drawn) | – | > 100 µM | 38.9 µM | 30.4 µM | 58.3 µM | 75.9 µM | > 100 µM | > 100 µM | > 100 µM | 62.6 µM | –
Cc1ccc([N+](=O)[O-])cc1S(=O)(=O)Nc1ccc(C2=NN(c3ccc([N+](=O)[O-])cc3[N+](=O)[O-])C(c3ccccc3O)C2)cc1 (stereo not drawn) | > 100 µM | > 100 µM | 54 µM | > 100 µM | > 100 µM | > 100 µM | 59.7 µM | > 100 µM | > 100 µM | – | > 100 µM
c1ccc(C(=NNc2nc3ccccc3[nH]2)c2ccccn2)nc1 | 1.84 µM | > 100 µM | – | > 74 µM | 97.9 µM | > 100 µM | > 100 µM | 2.64 µM | > 100 µM | 28.6 µM | –
CN(C)CCCNC(=O)c1cc(NC(=O)c2cc(NC(=O)c3cc(NC(=O)CCCn4ccc(CO)c4CO)cn3C)cn2C)cn1C | – | > 100 µM | > 100 µM | 47.7 µM | 7.51 µM | > 100 µM | > 100 µM | > 100 µM | > 100 µM | > 100 µM | 6.24 µM
c1ccc([C@H]2CN3CCSC3=N2)cc1 | > 100 µM | > 100 µM | > 100 µM | > 100 µM | – | > 100 µM | > 100 µM | > 100 µM | > 100 µM | > 100 µM | > 100 µM
N#CSCC1COc2ccccc2O1 (stereo not drawn) | > 10 µM | > 10 µM | > 10 µM | > 10 µM | – | – | > 10 µM | > 10 µM | > 10 µM | > 10 µM | > 10 µM
ClCc1c(-c2ccccc2)nn(-c2ccccc2)c1CCl | 35.5 µM | 5.21 µM | 42.3 µM | 6.42 µM | – | 22 µM | 34.7 µM | 42.9 µM | 29 µM | 26.8 µM | 28.3 µM

Reference: PubChem BioAssay (NCI)
